Measured values taken from a melting point compilation (Tetko et al.; mined from patent text by program, amines drawn as free bases though some values may be those of a salt).

`Nc1sc(-c2ccc(F)cc2)cc1C(=O)O` gave a melting point of 172 to 174 °C. Work on `CNCC1Cc2cc(-c3cccc(F)c3)cc(F)c2O1` (stereo unspecified) yielded a melting point greater than 250 °C. With `CCCCN(CCCC)c1ccc(C=Cc2ccc(C=CC3=C(C#N)C(=C(C#N)C#N)OC3(C)C)s2)c(OC)c1` the melting point was 191 to 192 °C. For `N[C@@]1(C(=O)O)C[C@H](NC(=O)Nc2c(Cl)cccc2Cl)[C@H]2[C@H](C(=O)O)[C@H]21` (relative stereo), the melting point was greater than 250 °C. `COc1cc(N)c(Cl)cc1C(=O)NCC1CCN(CCCCCN2C(=O)c3ccccc3C2=O)CC1` gave a melting point of 58 to 61 °C. In the case of `CCCCCCCc1ccc([C@H]2CC[C@H](O)CC2)cc1`, the melting point is reported as 80.2 to 82.5 °C. For `CN1C=C(S(=O)(=O)C(F)(F)F)C(Cl)(c2ccc(Cl)cc2)C1` (stereo unspecified), the melting point was 117 to 119 °C. Work on `CCOC(=O)C=C(c1ccc(-c2ccccc2)cc1)C1(n2cncn2)CC1` yielded a melting point of 98 to 100 °C. Molecule `CC(=O)c1cccc(N2CCN(CCCCOc3ccc4c(n3)NC(=O)CC4)CC2)c1Cl` has a melting point of 138 to 139 °C. `CN1C(=O)CC[C@]2(C)c3ccc(-c4cccc([N+](=O)[O-])c4)cc3CC[C@@H]12` gave a melting point of 181 to 183 °C. `Cc1c(SCCCSCc2ccc(Cl)s2)ccnc1CNc1cnc2ccccc2c1` showed a melting point of 127 to 131 °C. `CC(NC(=O)/C=C\C(=O)O)C(O)c1ccccc1` (stereo unspecified) showed a melting point of 154 to 156 °C. For `O=C(C=C1CCCN1)c1ccc(Cl)c(Cl)c1`, the melting point was 208 to 209 °C. Work on `O=C1O[C@@H](Cn2ccnn2)CN1c1ccc(-c2ccc(CO)nc2)c(F)c1` yielded a melting point of 177 °C. `CCOC(=O)c1c(O)c2ccc(F)cc2c(=O)n1CC(C)(C)C` gave a melting point of 92 to 93 °C. `CC=CN(C=CC)c1ccc2[nH]c3cnc(-c4nc(CC)no4)cc3c2c1` showed a melting point of 151 to 156 °C. With `Cc1oc(-c2ccccc2Cl)nc1CCOc1ccc(CC2SC(=O)NC2=O)cn1` (stereo unspecified) the melting point was 176 to 177 °C. `CCOC(=O)c1c(O)c2c(C)csc2n(Cc2ccccc2)c1=O` gave a melting point of 166 °C. `CCOC(=O)Cc1cc2ccc(Br)cc2[nH]1` gave a melting point of 67 to 69 °C. With `CCOC(=O)c1c(N2CCN(C(=O)c3cccs3)CC2)c2cnccc2n(Cc2ccc(F)cc2)c1=O` the melting point was 132 °C. With `COc1ccc(-c2cc3cc(OC)c(OC)cc3c(C)n2)cc1OC` the melting point was 168 to 169 °C. For `CCOC(=O)c1ccc(I)cc1N`, the melting point was 51 to 53 °C. For `COC(=O)N(C1c2ccccc2-c2ccccc21)[C@H]1[C@H](C(=O)O)C[C@H]2C[C@@H]1C2(C)C`, the melting point was 155 to 157 °C. Molecule `O=C(O)C1Oc2cc(Cl)c(S(=O)(=O)c3cc(Cl)cc(Cl)c3)cc2O1` (stereo unspecified) has a melting point of 166 to 169 °C. For `Nc1c(Cl)cc(C(O)CNCCC#CCOCCc2ccccc2)cc1Cl` (stereo unspecified), the melting point was 62.5 to 63 °C. `CC(C)Cn1c(=O)n(C)c(=O)c2c(Sc3cccs3)c(Cn3cnc4ccccc43)sc21` gave a melting point of 198 °C. In the case of `CS(=O)(=O)c1ccc(-c2cnn(C3Cc4ccccc4C3)c(=O)c2-c2ccc(F)cc2)cc1`, the melting point is reported as 97 to 100 °C. `Nc1nc(-c2cccnc2)c(Cl)s1` showed a melting point of 202 °C. Molecule `Cc1c(F)c(N2CCC(C)(CN)C2)c(F)c2c1c(=O)c(C(=O)O)cn2C1CC1` (stereo unspecified) has a melting point of 182 to 184 °C. `C=C1N(C)C(=O)OC12CCN(C(=O)NCCCC)CC2` gave a melting point of 129 to 130 °C. Work on `CCCCCCS(=O)(=O)c1nn2c(=O)cc(-c3ccccc3)nc2s1` yielded a melting point of 131 to 134 °C. `CC(=O)N1CCCSC1=C[N+](=O)[O-]` gave a melting point of 91 to 92.5 °C. `CCc1cc(C(=O)c2ccccc2)c(O)cc1OCCCCC#N` showed a melting point of 42 to 44 °C. `Cc1nc(NCCSCc2nc[nH]c2C)[nH]c(=O)c1CCc1ccccc1` showed a melting point of 222 to 224 °C. `CC1CCCN1CCN1C=c2ccc(=c3ccc4c(c3)CCN(C)C=4)cc2CC1` (stereo unspecified) gave a melting point greater than 270 °C. Molecule `CCCCCN1CCN(c2nc(C)c(C(=O)NCc3cccnc3)s2)C1=O` has a melting point of 102 to 103 °C. `COC(CN(C)C(=O)Nc1nnc(C(C)Oc2ccc(Cl)c(Cl)c2)s1)OC` (stereo unspecified) gave a melting point of 124 to 127 °C. Work on `CC(=O)C(Cl)=NNc1ccccc1S(C)(=O)=O` yielded a melting point of 253 to 255 °C. Work on `COc1ccc(CCN2CCC(N3CCc4ccc(CNC(C)=O)cc43)CC2)cc1` yielded a melting point of 151 to 152 °C. Molecule `O=C(O)c1ccc(Cl)cc1Nc1ccc(O)cc1` has a melting point of 164 to 165 °C. `CCC#C[C@]1(C(F)(F)F)O[C@@H](c2ccccc2)C(=O)Nc2ccc(Cl)cc21` (relative stereo) gave a melting point of 198 to 199 °C. With `C[C@@H]1CCCN1CCCOc1ccc2c(c1)CCc1cc(=O)[nH]nc1-2` the melting point was 289 to 292 °C. With `O=CNc1ccccc1N1CCc2cc(Cl)ccc21` the melting point was 126 to 129 °C. Work on `O=C(O)Cc1c(C(=O)c2ccc(OC(F)(F)F)cc2)[nH]c2ccc(Cl)cc12` yielded a melting point of 187 °C. `O=C(NCCc1ccccc1)c1ccc(S(=O)(=O)NC(=O)c2ccc(C(=O)NCCO)nc2)cc1` gave a melting point of 228 to 230 °C. For `CC1=C(C)C(=O)N(c2ccc(Cl)c(Cl)c2)C1=O`, the melting point was 188 °C. `CCOC(=O)Nc1c(Cl)cc2nc(O)c(O)nc2c1[N+](=O)[O-]` showed a melting point greater than 300 °C. `COc1ccc(N(C)CCCOc2ccc3ccccc3c2)cc1` gave a melting point of 112 °C. `COc1ccc(C(=O)Nc2c(C)c(C)c3c(c2C)C(c2ccc(C)cc2)C(C)(C)O3)cc1` (stereo unspecified) showed a melting point of 161 to 163 °C. `COc1ccc(-c2ccc3nc(NC(=O)c4ccc(C(C)(C)C)cc4)cn3c2)cn1` gave a melting point of 245 to 247 °C. `CCN(CC)C(=O)c1cc2sccc2c(-c2ccccc2Cl)n1` gave a melting point of 119 °C. `CCOC(=O)c1cnc2cn[nH]c2c1Nc1cccs1` showed a melting point of 188 to 190 °C. Work on `CCOC(=O)c1[nH]c(COC)nc1C(C)(C)O` yielded a melting point of 112 to 113 °C. With `O=C1CCC(CCN2CCN(c3cc(C(F)(F)F)ccc3F)CC2)CC1` the melting point was 75 to 76 °C. Molecule `COCCCNC(N)=O` has a melting point of 128 to 130 °C. Molecule `CCc1nc(S(=O)(=O)Nc2c(Cl)cccc2Cl)nn1-c1ccccc1` has a melting point of 185 to 187 °C. In the case of `COc1ccc2nc(C)c(S(N)(=O)=O)n2n1`, the melting point is reported as 251 °C. For `Clc1ccsc1-c1nc(COc2ccc(CCCn3ccnc3)cc2)co1`, the melting point was 69 to 70 °C. With `Cc1cc(C)nc(NC(=O)NS(=O)(=O)c2sccc2-c2ccon2)n1` the melting point was 172 to 173 °C. Work on `O=C(O)c1cn(Cc2cnsn2)c2nc(Cl)c(F)cc2c1=O` yielded a melting point of 231 to 232 °C. `CCc1nc2c(c(C)c(C)n3nnnc23)n1CCOCCNC(=O)CCCCl` gave a melting point of 149 to 151 °C. `CN1CCN(C2=Nc3cscc3C(=CC#N)c3cscc32)CC1` gave a melting point of 148 to 151 °C. `CCC(C)(CC)c1nnc(NC(=O)c2c(OC)cccc2OC)[nH]1` showed a melting point of 279 to 280 °C. For `O=C(O)C(Cc1ccccc1)Oc1ccc2cc(-c3cnc(Cc4ccccc4)o3)ccc2c1` (stereo unspecified), the melting point was 78 to 82 °C. Molecule `CNc1cc(F)ccc1C(=O)Cc1nnn[nH]1` has a melting point of 214 to 216 °C. Work on `COc1cccc(C#Cc2ncn3c2[C@@H]2CCCN2C(=O)c2c(Cl)cccc2-3)c1` yielded a melting point of 204 to 205 °C. With `CCOC(=O)c1ncc2[nH]c3cccc(Cc4ccccc4Cl)c3c2c1COC` the melting point was 182 to 184 °C. Molecule `Clc1ccc(Cn2c(-c3ccccn3)nc3ccccc32)cc1Cl` has a melting point of 227 to 229 °C. `CCCN(Cc1ccc(-c2ccccc2-c2nnnn2C(c2ccccc2)(c2ccccc2)c2ccccc2)cc1)c1nc(C)cnc1C(=O)OCC` gave a melting point of 110 to 112 °C. In the case of `COc1cc(OC)cc(N2CCN(C(=S)Nc3cc(C(C)O)c(C)nc3OC)CC2)c1` (stereo unspecified), the melting point is reported as 189 to 190 °C. `CC(=NOCCOc1ccc(CC2SC(=O)NC2=O)cc1)c1ccc(-c2ccccc2)cc1` (stereo unspecified) gave a melting point of 164 to 166 °C.
